In patent US9321760B2 (Merck Patent GmbH, priority 2011, dated 2016):

The compounds below were run against P70S6K (T412E mutant) (Homo sapiens (Human), UniProt P23443, T412E) (assay: P70S6K enzyme assay). Details: 3 nM P70S6K T412E mutant, 24 μM ATP, 1 μM FITC-AHA-AKRRRLSSLRA-OH substrate peptide, 90 min at 25° C.
Format: biochemical
How it was run: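 P70S6K T412E mutant (3 nM) with 24 μM ATP and 1 μM FITC-labelled S6-derived peptide in Hepes pH 7.5, MgCl2, DTT, Brij buffer; 90 min at 25° C, stopped with EDTA. Phosphorylated product and substrate peptides separated by microfluidic mobility shift; IC50 values derived.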

P70S6K (T412E mutant), sequence (P23443 whole entry T412E): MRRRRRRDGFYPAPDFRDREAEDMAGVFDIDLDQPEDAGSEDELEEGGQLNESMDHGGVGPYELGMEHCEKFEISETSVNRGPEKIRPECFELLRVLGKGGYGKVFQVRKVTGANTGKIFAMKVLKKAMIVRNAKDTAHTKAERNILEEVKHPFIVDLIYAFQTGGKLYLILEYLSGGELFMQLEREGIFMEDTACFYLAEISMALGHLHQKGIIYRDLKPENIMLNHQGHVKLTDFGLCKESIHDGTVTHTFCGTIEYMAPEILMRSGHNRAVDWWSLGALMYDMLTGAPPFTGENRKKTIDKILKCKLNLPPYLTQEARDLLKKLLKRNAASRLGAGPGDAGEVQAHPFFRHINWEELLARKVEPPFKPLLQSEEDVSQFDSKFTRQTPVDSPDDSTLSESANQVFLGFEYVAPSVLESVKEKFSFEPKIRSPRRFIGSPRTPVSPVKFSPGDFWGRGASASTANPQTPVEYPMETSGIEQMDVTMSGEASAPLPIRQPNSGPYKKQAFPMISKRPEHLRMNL

IC50 [nM] | Structure (SMILES)
1400 | Nc1ncnc(N2CCN(C(CN3CCC3)c3ccc(Cl)c(C(F)(F)F)c3)CC2)c1-c1cn[nH]c1 (centres unmarked) [Example 132, 6-{4-[2-Azetidin-1-yl-1-(4-chloro-3-trifluoromethyl-phenyl)-ethyl]-piperazin-1-yl}-5-(1H-pyrazol-4-yl)-pyrimidin-4-ylamine]
3.2 | NC[C@H](c1ccc(C(F)(F)F)cc1)C1CCN(c2ncnc(N)c2-c2ccc(F)cc2)CC1 [Example 53, 6-{4-[(S)-2-Amino-1-(4-trifluoromethyl-phenyl)-ethyl]-piperidin-1-yl}-5-(4-fluoro-phenyl)-pyrimidin-4-ylamine]
> 1000 | Nc1ncnc(N2CCN(C(CN3CCCCC3)c3ccc(F)cc3)CC2)c1Br (centres unmarked) [Example 72, 5-Bromo-6{4-[1-(4-fluoro-phenyl)-2-piperidin-1-yl-ethyl]-piperazin-1-yl}-pyrimidin-4-ylamine]
250 | Nc1ncnc(N2CCC(C(c3ccc(F)cc3)N3CCCC3)CC2)c1-c1ccc(F)cc1 (centres unmarked) [Example 148, 5-(4-fluoropheny)-6-(4-((4-fluorophenyl)(pyrrolidin-1-yl)methyl)piperidin-1-yl)pyrimidin-4-amine]
14 | Cn1cc(-c2c(N)ncnc2N2CCN([C@H](CN)c3ccc(C(F)(F)F)cc3)CC2)cn1 [Example 41, 6-{4-[(S)-2-Amino-1-(4-trifluoromethyl-phenyl)-ethyl]-piperazin-1-yl}-5-(1-methyl-1H-pyrazol-4-yl)-pyrimidin-4-ylamine]
